Data: PMC11995724, “Antibiotic target discovery by integrated phenotypic and activity-based profiling of electrophilic fragments” (Cell chemical biology, 2025)

Assay: in vitro
Conditions: human, hek293t cells

Row | Structure (SMILES) | viability at 48 h, 25 µM
1 | C=CC(=O)N(C)Cc1ccn(CC)n1 [1-L16, N-[(1-ethyl-1H-pyrazol-3-yl)methyl]-N-methylprop-2-enamide] | 75.2%
2 | C=CC(=O)NCc1ccc(C(=O)N2CCOCC2)cc1 [1-L17, N-{[4-(morpholine-4-carbonyl)phenyl]methyl}prop-2-enamide] | 81.2%
3 | C=CC(=O)N1CCC[C@H]1Cn1cc(C2CC2)nn1 [1-L18, 1-[(2S)-2-[(4-cyclopropyl-1H-1,2,3-triazol-1-yl)methyl]pyrrolidin-1-yl]prop-2-en-1-one] | 92.2%
4 | C=CC(=O)N1CCCc2cccc(F)c21 [1-L19, 1-(8-fluoro-1,2,3,4-tetrahydroquinolin-1-yl)prop-2-en-1-one] | 112%
5 | C=CC(=O)N1CCCC(Cc2noc(C)n2)C1 (stereo not drawn) [1-L20, 1-{3-[(5-methyl-1,2,4-oxadiazol-3-yl)methyl]piperidin-1-yl}prop-2-en-1-one] | 72.5%
6 | C=CC(=O)Nc1ccc2ccn(CCN(C)C)c2c1 [1-L21, N-{1-[2-(dimethylamino)ethyl]-1H-indol-6-yl}prop-2-enamide] | 113%
7 | C=CC(=O)N1CC(NC(=O)c2ccoc2CC)C(C)(C)C1 (stereo not drawn) [1-L22, N-[4,4-dimethyl-1-(prop-2-enoyl)pyrrolidin-3-yl]-2-ethylfuran-3-carboxamide] | 71.3%
8 | C=CC(=O)NCc1cnc(N2CCOCC2)s1 [1-M03, N-{[2-(morpholin-4-yl)-1,3-thiazol-5-yl]methyl}prop-2-enamide] | 86.3%
9 | C=CC(=O)NC1(c2cccc(F)c2)CCOCC1 [1-M04, N-[4-(3-fluorophenyl)oxan-4-yl]prop-2-enamide] | 71.1%
10 | C=CC(=O)Nc1ccccc1-c1nnnn1C [1-M05, N-[2-(1-methyl-1H-1,2,3,4-tetrazol-5-yl)phenyl]prop-2-enamide] | 79.7%
11 | C=CC(=O)NCCc1coc(-c2ccc(C)cc2)n1 [1-M06, N-{2-[2-(4-methylphenyl)-1,3-oxazol-4-yl]ethyl}prop-2-enamide] | 68.3%
12 | C=CC(=O)NCc1ccc(-n2cccn2)cc1 [1-M07, N-{[4-(1H-pyrazol-1-yl)phenyl]methyl}prop-2-enamide] | 81.4%
13 | C=CC(=O)NC1CCC(OCc2cc(C)no2)CC1 (stereo not drawn) [1-M08, N-{4-[(3-methyl-1,2-oxazol-5-yl)methoxy]cyclohexyl}prop-2-enamide] | 86.5%
14 | C=CC(=O)NC(C)c1nnnn1C1CC1 (stereo not drawn) [1-M09, N-[1-(1-cyclopropyl-1H-1,2,3,4-tetrazol-5-yl)ethyl]prop-2-enamide] | 82.7%
15 | C=CC(=O)N(CCO)c1ccc(C(=O)O)cc1 [1-M10, 4-[N-(2-hydroxyethyl)prop-2-enamido]benzoic acid] | 96.4%
16 | C=CC(=O)NCc1ccnc(N2CCN(c3ccc(F)cc3)CC2)c1 [1-M11, N-({2-[4-(4-fluorophenyl)piperazin-1-yl]pyridin-4-yl}methyl)prop-2-enamide] | 71.6%
17 | C=CC(=O)Nc1ncccn1 [1-M12, N-(pyrimidin-2-yl)prop-2-enamide] | 71.5%
18 | C=CC(=O)Nc1cc2c(cc1Sc1ccccc1)OCCO2 [1-M13, N-[7-(phenylsulfanyl)-2,3-dihydro-1,4-benzodioxin-6-yl]prop-2-enamide] | 82.4%
19 | C=CC(=O)NCc1cccc(-n2cccn2)n1 [1-M14, N-{[6-(1H-pyrazol-1-yl)pyridin-2-yl]methyl}prop-2-enamide] | 93.2%

Row | Structure (SMILES) | viability at 48 h, 25 µM
20 | C=CC(=O)Nc1ccccc1C1CC1(F)F (stereo not drawn) [1-M15, N-[2-(2,2-difluorocyclopropyl)phenyl]prop-2-enamide] | 86.4%
21 | C=CC(=O)Nc1cccc(C(O)C(F)(F)F)c1 (stereo not drawn) [1-M16, N-[3-(2,2,2-trifluoro-1-hydroxyethyl)phenyl]prop-2-enamide] | 102%
22 | C=CC(=O)NCC1CCCC(C2CC2)O1 (stereo not drawn) [1-M17, N-[(6-cyclopropyloxan-2-yl)methyl]prop-2-enamide] | 88.7%
23 | C=CC(=O)NCc1ccc(-n2ccnc2)cc1 [1-M18, N-{[4-(1H-imidazol-1-yl)phenyl]methyl}prop-2-enamide] | 90.9%
24 | C=CC(=O)Nc1c(C)cnn1CC1CC1 [1-M19, N-[1-(cyclopropylmethyl)-4-methyl-1H-pyrazol-5-yl]prop-2-enamide] | 94.9%
25 | C=CC(=O)Nc1ccc(C(=O)C(F)F)cc1 [1-M20, N-[4-(2,2-difluoroacetyl)phenyl]prop-2-enamide] | 104%
26 | C=CC(=O)Nc1ncnc2c1cnn2Cc1cccc(C)c1 [1-M21, N-{1-[(3-methylphenyl)methyl]-1H-pyrazolo[3,4-d]pyrimidin-4-yl}prop-2-enamide] | 100%
27 | C=CC(=O)NCc1nnnn1-c1ccc(F)cc1 [1-M22, N-{[1-(4-fluorophenyl)-1H-1,2,3,4-tetrazol-5-yl]methyl}prop-2-enamide] | 106%
28 | C=CC(=O)NCc1ccccc1S(=O)(=O)NC [1-N03, N-{[2-(methylsulfamoyl)phenyl]methyl}prop-2-enamide] | 92.3%
29 | C=CC(=O)NC(C)c1cn(-c2ccccc2)nn1 (stereo not drawn) [1-N04, N-[1-(1-phenyl-1H-1,2,3-triazol-4-yl)ethyl]prop-2-enamide] | 78.9%
30 | C=CC(=O)N1CCc2c(nnn2CCOC)C1 [1-N05, 1-[1-(2-methoxyethyl)-1H,4H,5H,6H,7H-[1,2,3]triazolo[4,5-c]pyridin-5-yl]prop-2-en-1-one] | 105%
31 | C=CC(=O)NCc1conc1C1CCC1 [1-N06, N-[(3-cyclobutyl-1,2-oxazol-4-yl)methyl]prop-2-enamide] | 69.5%
32 | C=CC(=O)NCCc1c(C)oc2ccccc12 [1-N07, N-[2-(2-methyl-1-benzofuran-3-yl)ethyl]prop-2-enamide] | 119%
33 | C=CC(=O)NC1CCN(Cc2ccc(Cl)cc2)CC1 [1-N08, N-{1-[(4-chlorophenyl)methyl]piperidin-4-yl}prop-2-enamide] | 101%
34 | C=CC(=O)N(CC(C)(C)C)C1CCN(c2ccc(C#N)cn2)CC1 [1-N09, N-[1-(5-cyanopyridin-2-yl)piperidin-4-yl]-N-(2,2-dimethylpropyl)prop-2-enamide] | 105%
35 | C=CC(=O)NC(C)(C)c1noc(CCC)n1 [1-N10, N-[2-(5-propyl-1,2,4-oxadiazol-3-yl)propan-2-yl]prop-2-enamide] | 91.9%
36 | C=CC(=O)N1CCCC1c1cccc(C)c1 (stereo not drawn) [1-N11, 1-[2-(3-methylphenyl)pyrrolidin-1-yl]prop-2-en-1-one] | 110%
37 | C=CC(=O)Nc1ccc2c(=O)onc(C)c2c1 [1-N12, N-(4-methyl-1-oxo-1H-2,3-benzoxazin-6-yl)prop-2-enamide] | 1.1%
38 | C=CC(=O)N(Cc1cccc(F)c1F)C1CCCC(F)(F)C1 (stereo not drawn) [1-N13, N-(3,3-difluorocyclohexyl)-N-[(2,3-difluorophenyl)methyl]prop-2-enamide] | 136%

Row | Structure (SMILES) | viability at 48 h, 25 µM
39 | C=CC(=O)Nc1ccnn1Cc1cccc(Cl)c1 [1-N14, N-{1-[(3-chlorophenyl)methyl]-1H-pyrazol-5-yl}prop-2-enamide] | 1.05%
40 | C=CC(=O)NC1CCN(Cc2ccccc2)C1 (stereo not drawn) [1-N15, N-(1-benzylpyrrolidin-3-yl)prop-2-enamide] | 103%
41 | C=CC(=O)N1CCC(c2ccc(OC)cc2)C1 (stereo not drawn) [1-N16, 1-[3-(4-methoxyphenyl)pyrrolidin-1-yl]prop-2-en-1-one] | 92.1%
42 | C=CC(=O)NC(C)c1nc(C2CCCCC2)no1 (stereo not drawn) [1-N17, N-[1-(3-cyclohexyl-1,2,4-oxadiazol-5-yl)ethyl]prop-2-enamide] | 102%
43 | C=CC(=O)N1CCC(c2nc3ccccc3o2)CC1 [1-N18, 1-[4-(1,3-benzoxazol-2-yl)piperidin-1-yl]prop-2-en-1-one] | 80.1%
44 | C=CC(=O)N1CCN(C(=O)c2cc(C)no2)CC1 [1-N19, 1-[4-(3-methyl-1,2-oxazole-5-carbonyl)piperazin-1-yl]prop-2-en-1-one] | 102%
45 | C=CC(=O)N1CCN(Cc2ccon2)CC1 [1-N20, 1-{4-[(1,2-oxazol-3-yl)methyl]piperazin-1-yl}prop-2-en-1-one] | 79.6%
46 | C=CC(=O)N(C)Cc1ccncc1 [1-N21, N-methyl-N-[(pyridin-4-yl)methyl]prop-2-enamide] | 135%
47 | C=CC(=O)NC1CN(C(C)=O)C1 [1-N22, N-(1-acetylazetidin-3-yl)prop-2-enamide] | 73.1%
48 | C=CC(=O)Nc1c(C)ccc(Cl)c1CO [1-O03, N-[3-chloro-2-(hydroxymethyl)-6-methylphenyl]prop-2-enamide] | 67.5%
49 | C=CC(=O)N1CCC(C(=O)Nc2[nH]nc(C(F)(F)F)c2C)CC1 [1-O04, N-[4-methyl-3-(trifluoromethyl)-1H-pyrazol-5-yl]-1-(prop-2-enoyl)piperidine-4-carboxamide] | 113%
50 | C=CC(=O)N1CCOC(c2noc(C(C)C)n2)C1 (stereo not drawn) [1-O05, 1-{2-[5-(propan-2-yl)-1,2,4-oxadiazol-3-yl]morpholin-4-yl}prop-2-en-1-one] | 87%
51 | C=CC(=O)Nc1nn(C2CCCC2)c(C)c1Cl [1-O06, N-(4-chloro-1-cyclopentyl-5-methyl-1H-pyrazol-3-yl)prop-2-enamide] | 78.2%
52 | C=CC(=O)NCc1ccno1 [1-O07, N-[(1,2-oxazol-5-yl)methyl]prop-2-enamide] | 68.4%
53 | C=CC(=O)NC1CCC(c2nc(CC)no2)CC1 (stereo not drawn) [1-O08, N-[4-(3-ethyl-1,2,4-oxadiazol-5-yl)cyclohexyl]prop-2-enamide] | 92.2%
54 | C=CC(=O)Nc1cnn(-c2ccncc2)c1C(F)F [1-O09, N-[5-(difluoromethyl)-1-(pyridin-4-yl)-1H-pyrazol-4-yl]prop-2-enamide] | 67.8%
55 | C=CC(=O)Nc1ccccc1Cl [1-O10, N-(2-chlorophenyl)prop-2-enamide] | 63%
56 | C=CC(=O)Nc1ccc2c(c1)CCO2 [1-O11, N-(2,3-dihydro-1-benzofuran-5-yl)prop-2-enamide] | 87.8%
57 | C=CC(=O)NCC(F)(F)c1cccnc1 [1-O12, N-[2,2-difluoro-2-(pyridin-3-yl)ethyl]prop-2-enamide] | 111%
